# Test results: ChEMBL document CHEMBL1201862, “PubChem BioAssay data set” (2004)
#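 48-hour exposure; five concentrations; linearly interpolated endpoints. Abbreviation: GI50, concentration required for 50% inhibition of growth.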 Activity calls are given as the source filed them. No stated cut-off is given here; in the data, active = GI50 up to about 1.1 µM and inactive = higher.
# Tests used:
# Test in all cases: growth of human tumour cells (NCI), 48 h
# [1] = test system: HT-29
# [2] = test system: HOP-92
# [3] = test system: SK-OV-3
# [4] = test system: CAKI-1
# [5] = test system: MCF7
# [6] = test system: UACC-62
# [7] = test system: SK-MEL-5
# [8] = test system: EKVX
# [9] = test system: KM-20L2
# [10] = test system: SF-295
# [11] = test system: SNB-78
# [12] = test system: KM12
# [13] = test system: LOX IMVI
# [14] = test system: U-251
# [15] = test system: RXF 393
# [16] = test system: NCI-H460
# [17] = test system: SNB-75
# [18] = test system: CCRF-CEM
# [19] = test system: SN12C
Structure (SMILES),GI50 [1],GI50 [2],GI50 [3],GI50 [4],GI50 [5],GI50 [6],GI50 [7],GI50 [8],GI50 [9],GI50 [10],GI50 [11],GI50 [12],GI50 [13],GI50 [14],GI50 [15],GI50 [16],GI50 [17],GI50 [18],GI50 [19]
COC(=O)[C@@H](O)[C@](O)(CCC(C)C)C(=O)O[C@@H]1C(OC)=C[C@]23CCCN2CCc2cc4c(cc2[C@H]13)OCO4,0.891 µM (active),1.05 µM (active),1.17 µM (inactive),1.77 µM (inactive),0.351 µM (active),3.9 µM (inactive),1.48 µM (inactive),1.71 µM (inactive),1.5 µM (inactive),1.53 µM (inactive),2.59 µM (inactive),1.26 µM (inactive),0.562 µM (active),0.869 µM (active),0.689 µM (active),0.325 µM (active),1.62 µM (inactive),1.51 µM (inactive),2.36 µM (inactive)
N/C(=N\O)N/N=C\c1ccccc1O,4.19 µM (inactive),8.79 µM (inactive),31.3 µM (inactive),3.84 µM (inactive),4.32 µM (inactive),5.64 µM (inactive),10 µM (inactive),11.2 µM (inactive),10.2 µM (inactive),4 µM (inactive),21.9 µM (inactive),5.02 µM (inactive),5.48 µM (inactive),8.34 µM (inactive),7.98 µM (inactive),3.29 µM (inactive),9.48 µM (inactive),5.6 µM (inactive),11.6 µM (inactive)
CSCSCC(CO)NC(=O)/C=C\c1c(C)[nH]c(=O)[nH]c1=O (configuration not stated),19.3 µM (inactive),0.838 µM (active),11.1 µM (inactive),2.88 µM (inactive),2.19 µM (inactive),22.4 µM (inactive),21.5 µM (inactive),16.1 µM (inactive),7.76 µM (inactive),76.6 µM (inactive),34.4 µM (inactive),12.7 µM (inactive),14.1 µM (inactive),7.57 µM (inactive),26.5 µM (inactive),12.2 µM (inactive),16.3 µM (inactive),2.27 µM (inactive),8.15 µM (inactive)
